Experimental data reported in PubChem BioAssay (NCI).
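Cultured in 96-well plates, cells were exposed to test compound for 48 hours across five concentrations. Here, GI50 denotes the concentration required for 50% inhibition of growth. Definition used: TGI = concentration required for complete inhibition of growth.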

Experiments:
Test in all cases: DTP human tumour cell line panel, 48 h
UACC-62 melanoma = test system: UACC-62 melanoma
BT-549 breast = test system: BT-549 breast
U251 CNS = test system: U251 CNS
SK-MEL-2 melanoma = test system: SK-MEL-2 melanoma
MALME-3M melanoma = test system: MALME-3M melanoma
HT29 colon = test system: HT29 colon
CCRF-CEM leukemia = test system: CCRF-CEM leukemia
MDA-MB-231 breast = test system: MDA-MB-231 breast
KM12 colon = test system: KM12 colon
RPMI-8226 leukemia = test system: RPMI-8226 leukemia
SR leukemia = test system: SR leukemia
TK-10 renal = test system: TK-10 renal
COLO 205 colon = test system: COLO 205 colon
SF-295 CNS = test system: SF-295 CNS
MCF7 breast = test system: MCF7 breast
SK-OV-3 ovarian = test system: SK-OV-3 ovarian
UO-31 renal = test system: UO-31 renal
CAKI-1 renal = test system: CAKI-1 renal
SNB-75 CNS = test system: SNB-75 CNS
OVCAR-5 ovarian = test system: OVCAR-5 ovarian
SF-268 CNS = test system: SF-268 CNS
HCC-2998 colon = test system: HCC-2998 colon
NCI-H23 lung = test system: NCI-H23 lung
NCI-H460 lung = test system: NCI-H460 lung
HS 578T breast = test system: HS 578T breast
SF-539 CNS = test system: SF-539 CNS
HOP-92 NSCLC = test system: HOP-92 NSCLC
M14 melanoma = test system: M14 melanoma
SK-MEL-5 melanoma = test system: SK-MEL-5 melanoma

Structure (SMILES): CCCN1C(=O)N(CCC)C2C1NC(=S)N2/N=C/C=C/c1ccccc1OC (configuration not stated)
- TGI (UACC-62 melanoma): 47000 nM
- GI50 (BT-549 breast): 2770 nM
- TGI (BT-549 breast): 32900 nM
- GI50 (U251 CNS): 588 nM
- TGI (U251 CNS): 27400 nM
- GI50 (SK-MEL-2 melanoma): 2080 nM
- TGI (SK-MEL-2 melanoma): > 63400 nM
- GI50 (MALME-3M melanoma): 694 nM
- TGI (MALME-3M melanoma): 82100 nM
- GI50 (HT29 colon): 386 nM
- TGI (HT29 colon): 17800 nM
- GI50 (CCRF-CEM leukemia): 448 nM
- TGI (CCRF-CEM leukemia): > 100000 nM
- GI50 (MDA-MB-231 breast): 2160 nM
- TGI (MDA-MB-231 breast): 22500 nM
- GI50 (KM12 colon): 422 nM
- TGI (KM12 colon): > 100000 nM
- GI50 (RPMI-8226 leukemia): 690 nM
- TGI (RPMI-8226 leukemia): 16700 nM
- GI50 (SR leukemia): 326 nM
- TGI (SR leukemia): > 35100 nM
- GI50 (TK-10 renal): 12600 nM
- TGI (TK-10 renal): > 100000 nM
- GI50 (COLO 205 colon): 520 nM
- TGI (COLO 205 colon): 9090 nM
- GI50 (SF-295 CNS): 487 nM
- TGI (SF-295 CNS): 29400 nM
- GI50 (MCF7 breast): 390 nM
- TGI (MCF7 breast): > 100000 nM
- GI50 (SK-OV-3 ovarian): 518 nM
- TGI (SK-OV-3 ovarian): > 100000 nM
- GI50 (UO-31 renal): 1260 nM
- TGI (UO-31 renal): > 100000 nM
- GI50 (CAKI-1 renal): 508 nM
- TGI (CAKI-1 renal): 97500 nM
- GI50 (SNB-75 CNS): 233 nM
- TGI (SNB-75 CNS): 2300 nM
- GI50 (OVCAR-5 ovarian): 3610 nM
- TGI (OVCAR-5 ovarian): > 100000 nM
- GI50 (SF-268 CNS): 1150 nM
- TGI (SF-268 CNS): 53400 nM
- GI50 (HCC-2998 colon): 2360 nM
- TGI (HCC-2998 colon): 65100 nM
- GI50 (NCI-H23 lung): 2660 nM
- TGI (NCI-H23 lung): > 100000 nM
- GI50 (NCI-H460 lung): 418 nM
- TGI (NCI-H460 lung): 16500 nM
- GI50 (HS 578T breast): 478 nM
- TGI (HS 578T breast): > 100000 nM
- GI50 (SF-539 CNS): 330 nM
- TGI (SF-539 CNS): 2310 nM
- GI50 (HOP-92 NSCLC): 624 nM
- TGI (HOP-92 NSCLC): > 100000 nM
- GI50 (M14 melanoma): 455 nM
- TGI (M14 melanoma): > 100000 nM
- GI50 (SK-MEL-5 melanoma): 516 nM
- TGI (SK-MEL-5 melanoma): 15900 nM
